Assay [1] concerns the target human GLP-1 receptor (Homo sapiens, UniProt P43220). Nature of the assay: Functional GLP-1 receptor assay, in vitro potency (CRE luciferase; whole cells). The class given is cell-based. The conditions noted are these: BHK cells expressing human GLP-1 receptor.
The test system of assay [2] is Mouse monocyte/macrophage cell line, RAW 264.7. Nature of the assay: Cholesterol efflux assay (3H-cholesterol, macrophage cell line). In kind it is cell-based. To be noted: RAW 264.7, 4 hrs incubation, 0.1% human serum albumin, ABCA1-mediated efflux.
Setting [3] is: 0% HSA, read-out: GLP1R CRE luc 0% HSA EC50 Mean Value.
Where [4] appears, read: GLP1R CRE luc 1% HSA EC50 Mean Value, 1% HSA.

Consider nine molecules from US20150344540A1, “NOVEL GLP-1 RECEPTOR AGONISTS WITH CHOLESTEROL EFFLUX ACTIVITY” (NOVO NORDISK A/S, priority 2012, published 2015).

Usually EC50 stands for the midpoint of the concentration-response curve.

Like-named read-outs stand apart in the source and are kept apart here. Where a SMILES comes first, the peptide text is derived from it. [ ]: non-standard residue; d: D form. Aib = CC(C)(N)C(=O)O

Chain of human GLP-1 receptor (P43220 24-463): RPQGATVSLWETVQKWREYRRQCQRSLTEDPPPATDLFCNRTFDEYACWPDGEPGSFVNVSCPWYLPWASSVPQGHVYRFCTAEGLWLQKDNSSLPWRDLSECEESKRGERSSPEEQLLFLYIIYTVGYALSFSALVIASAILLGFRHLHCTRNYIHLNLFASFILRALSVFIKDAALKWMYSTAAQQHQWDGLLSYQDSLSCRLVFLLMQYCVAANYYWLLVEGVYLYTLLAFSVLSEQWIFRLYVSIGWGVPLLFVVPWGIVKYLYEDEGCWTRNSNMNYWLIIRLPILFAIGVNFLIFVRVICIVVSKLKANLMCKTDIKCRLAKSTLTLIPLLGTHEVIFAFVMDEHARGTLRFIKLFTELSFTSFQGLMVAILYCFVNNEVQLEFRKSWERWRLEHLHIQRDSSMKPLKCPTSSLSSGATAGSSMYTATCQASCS

In the case of `CC[C@H](C)[C@H](NC(=O)[C@H](Cc1ccccc1)NC(=O)[C@H](CCC(=O)O)NC(=O)[C@H](CCCCN)NC(=O)[C@@H](NC(=O)[C@H](C)NC(=O)[C@H](CCC(=O)O)NC(=O)[C@H](CCC(=O)O)NC(=O)[C@H](CCC(=O)O)NC(=O)[C@H](CC(C)C)NC(=O)[C@H](Cc1ccc(O)cc1)NC(=O)[C@H](CO)NC(=O)[C@H](CO)NC(=O)[C@@H](NC(=O)[C@H](CC(=O)O)NC(=O)[C@H](CO)NC(=O)[C@@H](NC(=O)[C@H](Cc1ccccc1)NC(=O)[C@@H](NC(=O)CNC(=O)[C@H](CCC(=O)O)NC(=O)C(C)(C)NC(=O)[C@@H](N)Cc1c[nH]cn1)[C@@H](C)O)[C@@H](C)O)C(C)C)C(C)C)C(=O)N[C@@H](C)C(=O)N[C@@H](Cc1c[nH]c2ccccc12)C(=O)N[C@@H](CC(C)C)C(=O)N[C@H](C(=O)N[C@@H](CCC(=O)O)C(=O)N[C@@H](CCCCN)C(=O)N[C@H](C(=O)N[C@@H](CCCCN)C(=O)N[C@@H](CCC(=O)O)C(=O)N[C@@H](Cc1ccccc1)C(N)=O)C(C)C)C(C)C` [Compound 134, [Aib8,Glu22,Glu23,Val25,Glu34,Lys35,Val36,Lys37]-GLP-1-(7-37)-peptidyl-Glu-Phe amide] (H-H[Aib]EGTFTSDVSSYLEEEAVKEFIAWLVEKVKEF-NH2), the EC50 in assay [1] (setting [3]) amounted to 0.029 nM; in assay [1] (setting [4]) it was 0.012 nM. Also, the “4 h Cholesterol Efflux Emax” value in assay [2] is reported as 134%.
In turn, “H-HGEGTFTSDVSSYLEEEAVKEFIAWLVEKVKEKL-NH2 [Compound 111, [Gly8,Glu22,Glu23,Val25,Glu34,Lys35,Val36,Lys37]-GLP-1-(7-37)-peptidyl-Glu-Lys-Leu amide]” returned an EC50 in assay [1] (setting [4]) of 0.076 nM. Moreover, in assay [2], the “4 h Cholesterol Efflux Emax” value was 117%.
As to `CC[C@H](C)[C@H](NC(=O)[C@H](Cc1ccccc1)NC(=O)[C@H](CCC(=O)O)NC(=O)[C@H](CCCCN)NC(=O)[C@@H](NC(=O)[C@H](C)NC(=O)[C@H](CCC(=O)O)NC(=O)CNC(=O)[C@H](CCC(=O)O)NC(=O)[C@H](CC(C)C)NC(=O)[C@H](Cc1ccc(O)cc1)NC(=O)[C@H](CO)NC(=O)[C@H](CO)NC(=O)[C@@H](NC(=O)[C@H](CC(=O)O)NC(=O)[C@H](CO)NC(=O)[C@@H](NC(=O)[C@H](Cc1ccccc1)NC(=O)[C@@H](NC(=O)CNC(=O)[C@H](CCC(=O)O)NC(=O)C(C)(C)NC(=O)[C@@H](N)Cc1c[nH]cn1)[C@@H](C)O)[C@@H](C)O)C(C)C)C(C)C)C(=O)N[C@@H](C)C(=O)N[C@@H](Cc1c[nH]c2ccccc12)C(=O)N[C@@H](CC(C)C)C(=O)N[C@H](C(=O)NCC(=O)NC(C)(C)C(=O)N[C@@H](CCCCN)C(=O)N[C@@H](CCC(=O)O)C(=O)N[C@@H](Cc1ccccc1)C(=O)N[C@@H](CC(C)C)C(N)=O)C(C)C` [Compound 10] (H-H[Aib]EGTFTSDVSSYLEGEAVKEFIAWLVG[Aib]KEFL-NH2), the EC50 in assay [1] (setting [3]) came out at 0.01 nM; in assay [1] (setting [4]), 0.004 nM. The “4 h Cholesterol Efflux Emax” value in assay [2] came out at 79%.
As for “H-HAEGTFTSDVSSYLEGEAVKEFIAWLVEKVKEFLEK-OH [Compound 123, [Glu23,Val25,Glu34,Lys35,Val36,Lys37]-GLP-1-(7-37)-peptidyl-Glu-Phe-Leu-Glu-Lys]”, the EC50 in assay [1] (setting [4]) was 0.031 nM. In addition, the “4 h Cholesterol Efflux Emax” value in assay [2] was found to be 111%.
For `CC[C@H](C)[C@H](NC(=O)[C@H](Cc1ccccc1)NC(=O)[C@H](CCC(=O)O)NC(=O)[C@H](CCCCN)NC(=O)[C@@H](NC(=O)[C@H](C)NC(=O)[C@H](CCC(=O)O)NC(=O)CNC(=O)[C@H](CCC(=O)O)NC(=O)[C@H](CC(C)C)NC(=O)[C@H](Cc1ccc(O)cc1)NC(=O)[C@H](CO)NC(=O)[C@H](CO)NC(=O)[C@@H](NC(=O)[C@H](CC(=O)O)NC(=O)[C@H](CO)NC(=O)[C@@H](NC(=O)[C@H](Cc1ccccc1)NC(=O)[C@@H](NC(=O)CNC(=O)[C@H](CCC(=O)O)NC(=O)C(C)(C)NC(=O)[C@@H](N)Cc1c[nH]cn1)[C@@H](C)O)[C@@H](C)O)C(C)C)C(C)C)C(=O)N[C@@H](C)C(=O)N[C@@H](Cc1c[nH]c2ccccc12)C(=O)N[C@@H](CC(C)C)C(=O)N[C@H](C(=O)N[C@@H](CCC(=O)O)C(=O)N[C@@H](CCCCN)C(=O)NC(C)(C)C(=O)N[C@@H](CCCCN)C(=O)N[C@@H](Cc1c[nH]cn1)C(=O)N[C@@H](Cc1ccccc1)C(=O)N[C@@H](CC(C)C)C(N)=O)C(C)C` [Compound 31, [Aib8,Glu23,Val25,Glu34,Lys35,Aib36,Lys37]-GLP-1-(7-37)-peptidyl-His-Phe-Leu amide] (H-H[Aib]EGTFTSDVSSYLEGEAVKEFIAWLVEK[Aib]KHFL-NH2), in that order: 0.062 nM and 84%.
Turning to `CC[C@H](C)[C@H](NC(=O)[C@H](Cc1ccccc1)NC(=O)[C@H](CCC(=O)O)NC(=O)[C@H](CCCNC(=N)N)NC(=O)[C@@H](NC(=O)[C@H](C)NC(=O)[C@H](CCC(=O)O)NC(=O)[C@H](CCC(=O)O)NC(=O)[C@H](CCC(=O)O)NC(=O)[C@H](CCSC)NC(=O)[C@H](CCC(N)=O)NC(=O)[C@H](CCCCN)NC(=O)[C@H](CO)NC(=O)[C@H](CC(C)C)NC(=O)[C@H](CC(=O)O)NC(=O)[C@H](CO)NC(=O)[C@@H](NC(=O)[C@H](Cc1ccccc1)NC(=O)[C@@H](NC(=O)CNC(=O)[C@H](CCC(=O)O)NC(=O)C(C)(C)NC(=O)[C@@H](N)Cc1c[nH]cn1)[C@@H](C)O)[C@@H](C)O)C(C)C)C(=O)N[C@@H](CCC(=O)O)C(=O)N[C@@H](Cc1c[nH]c2ccccc12)C(=O)N[C@@H](CC(C)C)C(=O)N[C@@H](CCCCN)C(=O)N[C@@H](CC(N)=O)C(=O)N[C@@H](CCCCN)C(=O)NC(C)(C)C(=O)N[C@@H](CC(C)C)C(=O)N[C@@H](CCC(=O)O)C(=O)N[C@@H](Cc1ccccc1)C(=O)N[C@@H](CC(C)C)C(=O)N[C@@H](CCC(=O)O)C(=O)N[C@@H](CC(C)C)C(=O)N1CCC[C@H]1C(N)=O` [Compound 40, [Aib2,Glu21,Lys29,Aib30,Leu31,Glu32,Phe33,Leu34,Glu35,Leu361-Exendin-4-(1-37)-peptide amide] (H-H[Aib]EGTFTSDLSKQMEEEAVREFIEWLKNK[Aib]LEFLELP-NH2; N-terminus assumed), the EC50 in assay [1] (setting [3]) came out at 0.023 nM; in assay [1] (setting [4]) it was 0.01 nM. The “4 h Cholesterol Efflux Emax” value in assay [2] came out at 91%.
In assay [1] (setting [4]), `CC[C@H](C)[C@H](NC(=O)[C@H](Cc1ccccc1)NC(=O)[C@H](CC(C)C)NC(=O)[C@H](CCCCN)NC(=O)[C@@H](NC(=O)[C@H](C)NC(=O)[C@H](CCC(=O)O)NC(=O)CNC(=O)[C@H](CCC(=O)O)NC(=O)[C@H](CC(C)C)NC(=O)[C@H](Cc1ccc(O)cc1)NC(=O)[C@H](CO)NC(=O)[C@H](CO)NC(=O)[C@@H](NC(=O)[C@H](CC(=O)O)NC(=O)[C@H](CO)NC(=O)[C@@H](NC(=O)[C@H](Cc1ccccc1)NC(=O)[C@@H](NC(=O)CNC(=O)[C@H](CCC(=O)O)NC(=O)C(C)(C)NC(=O)[C@@H](N)Cc1c[nH]cn1)[C@@H](C)O)[C@@H](C)O)C(C)C)C(C)C)C(=O)N[C@@H](C)C(=O)N[C@@H](Cc1c[nH]c2ccccc12)C(=O)N[C@@H](CC(C)C)C(=O)N[C@H](C(=O)N[C@@H](CCC(=O)O)C(=O)N[C@@H](CCCCN)C(=O)NC(C)(C)C(=O)N[C@@H](CCCCN)C(=O)N[C@@H](CCC(=O)O)C(=O)N[C@@H](Cc1ccccc1)C(=O)N[C@@H](CC(C)C)C(N)=O)C(C)C` [Compound 28, [Aib8,Glu23,Val25,Leu27,Glu34,Lys35,Aib36,Lys37]-GLP-1-(7-37)-peptidyl-Glu-Phe-Leu amide] (H-H[Aib]EGTFTSDVSSYLEGEAVKLFIAWLVEK[Aib]KEFL-NH2) returned an EC50 of 0.104 nM. The “4 h Cholesterol Efflux Emax” value in assay [2] turned out to be 78%.
In the case of `CC(C)C[C@H](NC(=O)[C@H](Cc1ccccc1)NC(=O)[C@H](CCC(=O)O)NC(=O)[C@H](CCCCN)NC(=O)C(C)(C)NC(=O)[C@H](CCCCN)NC(=O)[C@H](CCC(=O)O)NC(=O)[C@H](CC(C)C)NC(=O)[C@H](CC(C)C)NC(=O)[C@H](Cc1c[nH]c2ccccc12)NC(=O)[C@H](CCC(N)=O)NC(=O)[C@@H](NC(=O)[C@H](Cc1ccccc1)NC(=O)[C@H](CCC(=O)O)NC(=O)[C@H](CCCNC(=N)N)NC(=O)[C@H](C)NC(=O)[C@H](CCCNC(=N)N)NC(=O)[C@H](CCCCN)NC(=O)CNC(=O)[C@H](CC(=O)O)NC(=O)[C@H](CC(C)C)NC(=O)[C@H](Cc1ccc(O)cc1)NC(=O)[C@H](CCCCN)NC(=O)[C@H](CO)NC(=O)[C@H](Cc1ccc(O)cc1)NC(=O)[C@H](CC(=O)O)NC(=O)[C@H](CO)NC(=O)[C@@H](NC(=O)[C@H](Cc1ccccc1)NC(=O)[C@@H](NC(=O)CNC(=O)[C@H](CCC(N)=O)NC(=O)C(C)(C)NC(=O)[C@@H](N)Cc1c[nH]cn1)[C@@H](C)O)[C@@H](C)O)C(C)C)C(N)=O` [Compound 25] (H-H[Aib]QGTFTSDYSKYLDGKRAREFVQWLLEK[Aib]KEFL-NH2), the EC50 in assay [1] (setting [3]) was determined as 0.591 nM; in assay [1] (setting [4]), 0.297 nM. Besides, in assay [2], the “4 h Cholesterol Efflux Emax” value is listed as 68%.
In the case of `CC[C@H](C)[C@H](NC(=O)[C@H](Cc1ccccc1)NC(=O)[C@H](CCC(=O)O)NC(=O)[C@H](CCCCN)NC(=O)[C@@H](NC(=O)[C@H](C)NC(=O)[C@H](CCC(=O)O)NC(=O)CNC(=O)[C@H](CCC(=O)O)NC(=O)[C@H](CC(C)C)NC(=O)[C@H](Cc1ccc(O)cc1)NC(=O)[C@H](CO)NC(=O)[C@H](CO)NC(=O)[C@@H](NC(=O)[C@H](CC(=O)O)NC(=O)[C@H](CO)NC(=O)[C@@H](NC(=O)[C@H](Cc1ccccc1)NC(=O)[C@@H](NC(=O)CNC(=O)[C@H](CCC(=O)O)NC(=O)C(C)(C)NC(=O)[C@@H](N)Cc1c[nH]cn1)[C@@H](C)O)[C@@H](C)O)C(C)C)C(C)C)C(=O)N[C@@H](CCC(=O)O)C(=O)N[C@@H](Cc1c[nH]c2ccccc12)C(=O)N[C@@H](CC(C)C)C(=O)N[C@H](C(=O)N[C@@H](CCC(=O)O)C(=O)N[C@@H](CCCCN)C(=O)N[C@H](C(=O)N[C@@H](CCCCN)C(=O)N[C@@H](CCC(=O)O)C(=O)N[C@@H](CCCCN)C(=O)N[C@@H](CC(C)C)C(N)=O)C(C)C)C(C)C` [Compound 112] (H-H[Aib]EGTFTSDVSSYLEGEAVKEFIEWLVEKVKEKL-NH2), the half-maximal effective concentration (EC50) in assay [1] (setting [3]) turned out to be 0.163 nM; in assay [1] (setting [4]) it was 0.039 nM. In assay [2], the “4 h Cholesterol Efflux Emax” value is 119%.
